Like-named read-outs stand apart in the source and are kept apart here. Where a SMILES comes first, the peptide text is derived from it. Bridges are numbered along the chain shown (N, C = ends). [ ]: non-standard residue; d: D form. Tle = CC(C)(C)[C@H](N)C(=O)O; dDab = NCC[C@@H](N)C(=O)O; NMeA = CN[C@@H](C)C(=O)O; Orn = NCCC[C@H](N)C(=O)O; Dab = NCC[C@H](N)C(=O)O; Dap = NC[C@H](N)C(=O)O
Tests used:
[1] = system: human red blood cells (hRBC); assay: Hemolysis: hemolytic activity at 100 μg/mL, 1 h at 37° C.
How it was run: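 Peptides at 100 μg/mL incubated with washed 20% (v/v) human erythrocytes (~0.9×10^9 cells/mL) for 1 h at 37 °C with shaking. Released hemoglobin read at OD 540 nm in supernatant; 0% and 100% lysis from PBS/0.001% acetic acid and 2.5% Triton X-100.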

[2] = system: Acinetobacter baumannii DSM 30008; assay type: cell-based
How it was run: (§1)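 Peptide activity was tested by NCCLS broth microdilution with slight modifications. Bacteria were diluted in cation-adjusted Mueller-Hinton II broth to approximately 10^6 CFU/mL against a 0.5 McFarland standard. They were then exposed to two-fold serial peptide dilutions in broth containing 0.002% final polysorbate 80.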

[3] = system: Escherichia coli ATCC 25922; assay type: cell-based
How it was run: as §1

[4] = system: Klebsiella pneumoniae ATCC 13883; assay type: cell-based
How it was run: as §1

[5] = Mueller-Hinton II broth, 18-20 hours at 35° C.

Structure (SMILES)	Hemolysis at 100 μg/mL ([1]; 100 μg/mL, 20% hRBC, 1 h at 37° C.)	Acinetobacter baumannii DSM 30008 MIC [2, 5]	Escherichia coli ATCC 25922 MIC [3, 5]	Klebsiella pneumoniae ATCC 13883 MIC [4, 5]	Hemolysis at 100 μg/mL ([1]; red cells of human, 1 h, 100)	Acinetobacter baumannii DSM 30008 MIC ([2]; DSM 30008)	Escherichia coli ATCC 25922 MIC ([3]; ATCC 25922)	Klebsiella pneumoniae ATCC 13883 MIC ([4]; ATCC 13883)	Hemolysis at 100 μg/mL ([1]; red cells of human, 1 h, 100 μg/mL)
CC(C)[C@@H]1NC(=O)[C@@H]2CSSC[C@H](NC(=O)[C@H](Cc3ccc(O)cc3)NC(=O)[C@H]([C@@H](C)O)NC(=O)[C@H](Cc3c[nH]c4ccccc34)NC(=O)[C@H](CCN)NC(=O)[C@@H](CCN)NC(=O)[C@H](CCCN)NC(=O)[C@H]([C@@H](C)O)NC1=O)C(=O)N[C@@H](CCN)C(=O)N[C@H](CCN)C(=O)N[C@@H](CCCNC(=N)N)C(=O)N[C@@H](Cc1ccccc1)C(=O)N2 [Example 24, cyclo(-Phe-Cys-Val-Thr-Orn-^DDab-Dab-Trp-Thr-Tyr-Cys-Dab-^DDab-Arg-)] (HELM PEPTIDE1{C.[Dab].[NCC[C@@H](N[*:1])C(=O)[*:2]].R.F.C.V.T.[Orn].[NCC[C@@H](N[*:1])C(=O)[*:2]].[Dab].W.T.Y}$PEPTIDE1,PEPTIDE1,1:R3-6:R3|PEPTIDE1,PEPTIDE1,1:R1-14:R2$$$V2.0)	0%	2 µg/mL	1 µg/mL	2 µg/mL					
CC(C)[C@@H]1NC(=O)[C@H](Cc2ccc(O)cc2)NC(=O)[C@@H](C)NC(=O)[C@H](CO)NC(=O)[C@@H]2CC(=O)NCC[C@H](NC1=O)C(=O)N[C@@H](Cc1ccc(O)cc1)C(=O)N[C@@H](CCN)C(=O)N[C@@H](CN)C(=O)N[C@H](CCN)C(=O)N[C@@H](CCN)C(=O)N[C@@H](Cc1c[nH]c3ccccc13)C(=O)N[C@@H](CN)C(=O)N[C@@H](C(C)(C)C)C(=O)N2 [Example 31, cyclo(-Val-Dab-Tyr-Dab-Dap-^DDab-Dab-Trp-Dap-tBuGly-Asp-Ser-^DAla-Tyr-)] (cyclo(DS[dA]YV[Dab]Y[Dab][Dap][dDab][Dab]W[Dap][Tle]); lactam 1-6)					1%	4 µg/mL	1 µg/mL	1 µg/mL	
CC(C)C[C@@H]1NC(=O)[C@H](CCCNC(=N)N)NC(=O)[C@@H](CCCCN)NC(=O)[C@H](C(C)C)NC(=O)[C@@H]2CSSC[C@H](NC1=O)C(=O)N[C@@H](Cc1ccc(O)cc1)C(=O)N[C@@H](CC(N)=O)C(=O)N[C@@H](CCCN)C(=O)N[C@H](CCN)C(=O)N[C@@H](CCN)C(=O)N[C@@H](Cc1c[nH]c3ccccc13)C(=O)N[C@@H](CO)C(=O)N[C@@H](Cc1ccc(O)cc1)C(=O)N2 [Example 65, cyclo(-Leu-Cys-Tyr-Asn-Orn-^DDab-Dab-Trp-Ser-Tyr-Cys-Val-^DLys-Arg-)] (HELM PEPTIDE1{C.V.[dK].R.L.C.Y.N.[Orn].[NCC[C@@H](N[*:1])C(=O)[*:2]].[Dab].W.S.Y}$PEPTIDE1,PEPTIDE1,1:R3-6:R3|PEPTIDE1,PEPTIDE1,1:R1-14:R2$$$V2.0)					1%	1.25 µg/mL	2 µg/mL	1 µg/mL	
CC(C)[C@@H]1NC(=O)[C@H](C)N(C)C(=O)[C@H]2CCCN2C(=O)[C@H](CO)NC(=O)[C@H](C)NC(=O)[C@H](C(C)(C)C)NC(=O)[C@H](CCN)NC(=O)[C@H](Cc2c[nH]c3ccccc23)NC(=O)[C@H](CCN)NC(=O)[C@@H](CCN)NC(=O)[C@H](CN)NC(=O)[C@H](CCN)NC(=O)[C@H](Cc2ccc(O)cc2)NC(=O)[C@H](CO)NC1=O [Example 44, cyclo(-Val-Ser-Tyr-Dab-Dap-^DDab-Dab-Trp-Dab-tBuGly-Ala-Ser-^DPro-NMeAla-)] (cyclo(AS[dP][NMeA]VSY[Dab][Dap][dDab][Dab]W[Dab][Tle]))					1%	2 µg/mL	1 µg/mL	0.5 µg/mL	
CC(C)C[C@@H]1NC(=O)[C@H](CCCNC(=N)N)NC(=O)[C@@H](CCN)NC(=O)[C@H]([C@@H](C)O)NC(=O)[C@@H]2CCNC(=O)C[C@H](NC1=O)C(=O)N[C@@H](Cc1ccc(O)cc1)C(=O)N[C@@H](CC(N)=O)C(=O)N[C@@H](CCCN)C(=O)N[C@H](CCN)C(=O)N[C@@H](CCN)C(=O)N[C@@H](Cc1c[nH]c3ccccc13)C(=O)N[C@@H](CO)C(=O)N[C@@H](C(C)(C)C)C(=O)N2 [Example 75, cyclo(-Leu-Asp-Tyr-Asn-Orn-^DDab-Dab-Trp-Ser-tBuGly-Dab-Thr-^DDab-Arg-)] (cyclo(LDYN[Orn][dDab][Dab]WS[Tle][Dab]T[dDab]R); lactam 2-11)					1%	1.5 µg/mL	1.5 µg/mL	1 µg/mL	
CC(C)C[C@@H]1NC(=O)[C@H](CCCNC(=N)N)NC(=O)[C@@H](CCN)NC(=O)[C@H](C(C)C)NC(=O)[C@@H]2CSSC[C@H](NC1=O)C(=O)N[C@@H](Cc1ccc(O)cc1)C(=O)N[C@@H](CC(N)=O)C(=O)N[C@@H](CCCN)C(=O)N[C@@H](CCN)C(=O)N[C@@H](CCN)C(=O)N[C@@H](Cc1c[nH]c3ccccc13)C(=O)N[C@@H](CO)C(=O)N[C@@H](Cc1ccc(O)cc1)C(=O)N2 [Example 55, cyclo(-Leu-Cys-Tyr-Asn-Orn-Dab-Dab-Trp-Ser-Tyr-Cys-Val-^DDab-Arg-)] (HELM PEPTIDE1{C.V.[NCC[C@@H](N[*:1])C(=O)[*:2]].R.L.C.Y.N.[Orn].[Dab].[Dab].W.S.Y}$PEPTIDE1,PEPTIDE1,1:R3-6:R3|PEPTIDE1,PEPTIDE1,1:R1-14:R2$$$V2.0)					0%	1.25 µg/mL	1 µg/mL	1 µg/mL	
CC(C)C[C@@H]1NC(=O)[C@H](CCCNC(=N)N)NC(=O)[C@H]2CCCN2C(=O)[C@H](C(C)C)NC(=O)[C@H]([C@@H](C)O)NC(=O)[C@H](C(C)C)NC(=O)[C@@H]2CSSC[C@H](NC(=O)[C@H](Cc3ccc(O)cc3)NC(=O)[C@H]([C@@H](C)O)NC1=O)C(=O)N[C@@H](CCN)C(=O)N[C@H](CCN)C(=O)N[C@@H](CCN)C(=O)N[C@@H](Cc1c[nH]c3ccccc13)C(=O)N2 [Example 36, cyclo(-Leu-Thr-Tyr-Cys-Dab-^DDab-Dab-Trp-Cys-Val-Thr-Val-^DPro-Arg-)] (HELM PEPTIDE1{C.[Dab].[NCC[C@@H](N[*:1])C(=O)[*:2]].[Dab].W.C.V.T.V.[dP].R.L.T.Y}$PEPTIDE1,PEPTIDE1,1:R3-6:R3|PEPTIDE1,PEPTIDE1,1:R1-14:R2$$$V2.0)					2%	2 µg/mL	4 µg/mL	2 µg/mL	
CC(C)C[C@@H]1NC(=O)[C@H](CCCNC(=N)N)NC(=O)[C@H]2CCCN2C(=O)[C@H](C(C)C)NC(=O)[C@@H]2CSSC[C@H](NC1=O)C(=O)N[C@@H](Cc1ccc(O)cc1)C(=O)N[C@H]1CSSC[C@H](NC(=O)[C@H](Cc3c[nH]c4ccccc34)NC(=O)[C@H](CCN)NC(=O)[C@@H](CCN)NC(=O)[C@H](CCN)NC1=O)C(=O)N[C@@H](Cc1ccc(O)cc1)C(=O)N2 [Example 43, cyclo(-Leu-Cys-Tyr-Cys-Dab-^DDab-Dab-Trp-Cys-Tyr-Cys-Val-^DPro-Arg-)] (HELM PEPTIDE1{C.[Dab].[NCC[C@@H](N[*:1])C(=O)[*:2]].[Dab].W.C.Y.C.V.[dP].R.L.C.Y}$PEPTIDE1,PEPTIDE1,1:R3-6:R3|PEPTIDE1,PEPTIDE1,8:R3-13:R3|PEPTIDE1,PEPTIDE1,1:R1-14:R2$$$V2.0)						1 µg/mL	4 µg/mL	2 µg/mL	2%
